Measurements reported in patent publication US11840686B2, “Modulation of prekallikrein (PKK) expression” (Ionis Pharmaceuticals, Inc., priority 2013, dated 2023).
Strand notation (5' to 3'): a small letter for the sugar, then the base; units joined by * are phosphorothioate-linked, units joined directly phosphodiester-linked; [ ] holds rarer units or linkages, { } end groups; capitals alone tell only the bases. e = 2'-O-(2-methoxyethyl) (MOE); k = constrained ethyl (cEt); [5mC] = 5-methylcytosine; d = 2'-deoxy (DNA)

The substances below were run on human PKK mRNA (assay: Antisense inhibition of human PKK mRNA in HepaRG cells, 1,000 nM, MOE/deoxy/cEt oligonucleotides (Example 3)). Conditions: HepaRG cells, 1,000 nM antisense oligonucleotide, Table 29.
Assay type: cell-based
Summary of the method: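 HepaRG cells at 20,000 per well electroporated with 1,000 nM 16-mer MOE/cEt/deoxy gapmers (phosphorothioate, 5-methylcytosine). After about 24 h, PKK mRNA measured by qRT-PCR with primer probe set RTS3454, normalized to RIBOGREEN total RNA. Reported as percent inhibition versus untreated cells.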

| Substance | % inhibition |
| --- | --- |
| 548564 (antisense eT*eT*kG*d[5mC]*dT*dA*d[5mC]*dT*dT*dT*dA*d[5mC]*dA*k[5mC]*k[5mC]*eA) [compound 548564] | 69% |
| 548595 (eG*eG*kA*dT*dG*dA*dG*dA*dT*dG*d[5mC]*dA*dT*k[5mC]*k[5mC]*eA; antisense) [compound 548595] | 8% |
| 548556 (antisense eA*eT*kG*d[5mC]*dA*dT*dG*d[5mC]*d[5mC]*dT*dA*d[5mC]*d[5mC]*k[5mC]*kA*eA) [compound 548556] | 43% |
| 548543 (antisense eG*eA*kT*d[5mC]*d[5mC]*dA*d[5mC]*d[5mC]*d[5mC]*dA*dT*dG*dA*k[5mC]*k[5mC]*eT) [compound 548543] | 32% |
| 548577 (eA*eA*kT*d[5mC]*dT*dG*d[5mC]*dA*d[5mC]*d[5mC]*dT*dG*dG*k[5mC]*kA*eG; antisense) [compound 548577] | 42% |
| 548612 (antisense eG*eG*k[5mC]*dG*dG*dG*dA*dT*d[5mC]*dG*dG*dT*dG*kG*kT*eG) [compound 548612] | 20% |

Same assay, conditions: HepaRG cells, electroporation with 1,000 nM antisense oligonucleotide, approx. 24 hours, PKK mRNA by RT-PCR (RTS3454), relative to untreated control cells; Table 25 experiment

| Substance | % inhibition |
| --- | --- |
| 548177 (eA*eG*kA*dT*d[5mC]*dT*d[5mC]*dA*dG*dT*dT*dG*d[5mC]*kG*kA*e[5mC]; antisense) [compound 548177] | 45% |
| 548160 (eT*e[5mC]*kG*d[5mC]*dA*dT*dT*dG*dT*d[5mC]*dA*dG*d[5mC]*k[5mC]*k[5mC]*e[5mC]; antisense) [compound 548160] | 60% |

Same assay, conditions: HepaRG cells, electroporation with 1,000 nM antisense oligonucleotide, approx. 24 hours, PKK mRNA by RT-PCR (RTS3454), relative to untreated control cells; Table 26 experiment

| Substance | % inhibition |
| --- | --- |
| 548289 (e[5mC]*eA*kT*dG*dA*dT*dA*d[5mC]*d[5mC]*dA*d[5mC]*dA*d[5mC]*k[5mC]*kA*e[5mC]; antisense) [compound 548289] | 28% |
| 548250 (antisense e[5mC]*eT*kT*dT*dG*dT*dG*dA*dT*dG*d[5mC]*dG*dA*kT*kT*eT) [compound 548250] | 0% |

Same assay, conditions: HepaRG cells, electroporation with 1,000 nM antisense oligonucleotide, approximately 24 hours, primer probe set RTS3454, relative to untreated control cells; experiment of Table 23

| Substance | % inhibition |
| --- | --- |
| 547932 (e[5mC]*eG*kA*dT*dT*dT*dT*d[5mC]*d[5mC]*dA*dT*dA*d[5mC]*kA*kT*eT; antisense) [compound 547932] | 33% |
| 547960 (eT*eG*k[5mC]*dA*dG*dG*dT*dT*dA*dA*dA*dA*dG*kG*k[5mC]*eT; antisense) [compound 547960] | 40% |
| 547951 (eA*eG*kA*dT*dA*dT*dG*dG*dT*dG*dT*dT*dT*kT*k[5mC]*eT; antisense) [compound 547951] | 25% |

Same assay, conditions: HepaRG cells, electroporation with 1,000 nM antisense oligonucleotide, approximately 24 hours, primer probe set RTS3454, relative to untreated control cells; experiment of Table 24

| Substance | % inhibition |
| --- | --- |
| 548062 (eA*eT*kA*dA*dA*dT*dT*dG*dT*dG*d[5mC]*dT*dT*kG*kT*eG; antisense) [compound 548062] | 19% |
| 548038 (eT*eA*kA*dT*dG*dT*d[5mC]*dT*dG*dA*d[5mC]*dA*dG*kA*kT*eT; antisense) [compound 548038] | 67% |
| 548030 (e[5mC]*eT*kG*dG*dT*dG*dT*d[5mC]*d[5mC]*dT*dA*dT*dG*kA*kG*eT; antisense) [compound 548030] | 52% |
| 548072 (eT*eT*kT*d[5mC]*dT*d[5mC]*d[5mC]*dT*dT*d[5mC]*dG*dA*dG*kA*kA*eG; antisense) [compound 548072] | 33% |

Same assay, conditions: PKK mRNA, HepaRG cells, 1,000 nM antisense oligonucleotide; Table 31

| Substance | % inhibition |
| --- | --- |
| 548689 (DNA e[5mC]*e[5mC]*kA*dG*dG*dT*dG*d[5mC]*dA*dG*d[5mC]*dA*d[5mC]*kG*kG*eA) [compound 548689] | 12% |
| 548661 (antisense eA*e[5mC]*kG*dA*d[5mC]*d[5mC]*d[5mC]*dA*d[5mC]*dT*d[5mC]*d[5mC]*dA*kT*kG*eT) [compound 548661] | 18% |

Same assay, conditions: Table 19; HepaRG cells, electroporation with 1,000 nM antisense oligonucleotide, approximately 24 hours; PKK mRNA by RT-PCR (RTS3454), relative to untreated control cells

| Substance | % inhibition |
| --- | --- |
| 548126 (eT*eG*k[5mC]*d[5mC]*dT*dA*dG*dA*d[5mC]*dT*d[5mC]*dT*dG*kG*kA*e[5mC]; antisense) [compound 548126] | 19% |
| 548114 (antisense eT*eG*kG*dT*dG*dA*d[5mC]*dT*dG*d[5mC]*dA*dT*d[5mC]*kT*kG*eA) [compound 548114] | 70% |
| 548144 (eA*eT*kG*d[5mC]*d[5mC]*dA*d[5mC]*dT*d[5mC]*dT*d[5mC]*d[5mC]*dA*kT*kG*e[5mC]; antisense) [compound 548144] | 52% |
| 548135 (eT*e[5mC]*kA*dG*dA*dA*dT*dT*dT*dG*dA*d[5mC]*dT*kT*kG*eA; antisense) [compound 548135] | 46% |
| 548102 (antisense eG*eT*kA*d[5mC]*dT*d[5mC]*dA*dG*d[5mC]*dG*dA*d[5mC]*dT*kT*kT*eG) [compound 548102] | 58% |
| 548111 (antisense eG*eA*k[5mC]*dT*dG*d[5mC]*dA*dT*d[5mC]*dT*dG*dA*dG*k[5mC]*kT*eT) [compound 548111] | 53% |

Same assay, conditions: Table 20; HepaRG cells, electroporation with 1,000 nM antisense oligonucleotide, approximately 24 hours; PKK mRNA by RT-PCR (RTS3454), relative to untreated control cells

| Substance | % inhibition |
| --- | --- |
| 547913 (eG*e[5mC]*kA*dA*d[5mC]*dA*dT*d[5mC]*d[5mC]*dA*d[5mC]*dA*dT*k[5mC]*kT*eG; antisense) [compound 547913] | 71% |
| 547905 (eT*eA*k[5mC]*dT*d[5mC]*dA*dG*d[5mC]*dA*d[5mC]*d[5mC]*dT*dT*kT*kA*eT; antisense) [compound 547905] | 20% |
| 547848 (antisense eA*eT*kG*dT*d[5mC]*dT*d[5mC]*dG*dA*dT*dG*dG*d[5mC]*kA*kA*eG) [compound 547848] | 93% |
| 547903 (e[5mC]*eT*k[5mC]*dA*dG*d[5mC]*dA*d[5mC]*d[5mC]*dT*dT*dT*dA*kT*kA*eG; antisense) [compound 547903] | 62% |

Same assay, conditions: Table 21 experiment; HepaRG cells, electroporation with 1,000 nM antisense oligonucleotide, approx. 24 hours; PKK mRNA by RT-PCR (RTS3454), relative to untreated control cells

| Substance | % inhibition |
| --- | --- |
| 547829 (eA*e[5mC]*k[5mC]*dT*dG*dT*dT*d[5mC]*dG*dA*dT*dG*dT*kA*k[5mC]*eT; antisense) [compound 547829] | 59% |
| 547816 (eG*eA*kA*d[5mC]*dT*dT*dG*d[5mC]*dT*dG*dG*dA*dA*kG*kA*eA; antisense) [compound 547816] | 45% |
| 547767 (antisense eT*eG*kG*dA*dG*dG*dT*dG*dA*dG*dT*d[5mC]*dT*k[5mC]*kT*eT) [compound 547767] | 74% |
| 547809 (eT*e[5mC]*kA*dT*d[5mC]*dT*dG*dG*d[5mC]*dA*dG*dT*dA*kT*kT*eG; antisense) [compound 547809] | 33% |
| 547836 (eT*e[5mC]*k[5mC]*dA*dG*dA*dA*dA*d[5mC]*dT*dG*d[5mC]*dA*k[5mC]*k[5mC]*eT; antisense) [compound 547836] | 50% |

Same assay, conditions: Table 22 experiment; HepaRG cells, electroporation with 1,000 nM antisense oligonucleotide, approx. 24 hours; PKK mRNA by RT-PCR (RTS3454), relative to untreated control cells

| Substance | % inhibition |
| --- | --- |
| 547913 (eG*e[5mC]*kA*dA*d[5mC]*dA*dT*d[5mC]*d[5mC]*dA*d[5mC]*dA*dT*k[5mC]*kT*eG; antisense) [compound 547913] | 61% |
| 547905 (eT*eA*k[5mC]*dT*d[5mC]*dA*dG*d[5mC]*dA*d[5mC]*d[5mC]*dT*dT*kT*kA*eT; antisense) [compound 547905] | 59% |
| 547848 (antisense eA*eT*kG*dT*d[5mC]*dT*d[5mC]*dG*dA*dT*dG*dG*d[5mC]*kA*kA*eG) [compound 547848] | 79% |
| 547903 (e[5mC]*eT*k[5mC]*dA*dG*d[5mC]*dA*d[5mC]*d[5mC]*dT*dT*dT*dA*kT*kA*eG; antisense) [compound 547903] | 6% |

Same assay, conditions: Table 28; HepaRG cells, 1,000 nM antisense oligonucleotide; human PKK mRNA

| Substance | % inhibition |
| --- | --- |
| 548513 (antisense e[5mC]*e[5mC]*kT*dG*d[5mC]*dT*dG*dA*dT*dT*dG*dT*dG*kT*k[5mC]*eT) [compound 548513] | 16% |
| 548474 (eG*eA*kA*dG*dG*dT*dG*dT*dG*d[5mC]*dT*dG*dT*k[5mC]*kG*e[5mC]; antisense) [compound 548474] | 33% |
| 548487 (eT*e[5mC]*k[5mC]*dA*dT*dG*dT*d[5mC]*dA*dG*dA*dG*dT*kT*kG*e[5mC]; antisense) [compound 548487] | 71% |
| 548534 (antisense e[5mC]*eA*kG*dA*dT*d[5mC]*d[5mC]*d[5mC]*dA*dA*dT*dT*d[5mC]*kT*kT*e[5mC]) [compound 548534] | 22% |

Same assay, conditions: Table 30; human PKK mRNA, HepaRG cells, 1,000 nM antisense oligonucleotide

| Substance | % inhibition |
| --- | --- |
| 548402 (e[5mC]*e[5mC]*k[5mC]*d[5mC]*dA*dT*d[5mC]*dT*d[5mC]*dG*dA*dA*dG*k[5mC]*k[5mC]*e[5mC]; antisense) [compound 548402] | 45% |
| 548418 (antisense eT*eA*kT*dA*dT*d[5mC]*dA*d[5mC]*dT*dG*dT*d[5mC]*d[5mC]*kT*kA*eT) [compound 548418] | 39% |
